Measurements taken from patent US20250346569A1, “NEW DERIVATIVES FOR TREATING TRPM3 MEDIATED DISORDERS” (Katholieke Universiteit Leuven, priority 2022, published 2025).

Target: T1, mouse TRPM3α2 (mTRPM3) ion channel (Mus musculus, UniProt J9SQF3)
T1 construct: expressed in transfected cells; host or cells: flip-in HEK293
Assay: Monitoring the TRPM3 ion channel driven Ca2+ uptake (Fluo-4 AM assay)
Type: cell-based
Conditions: TRPM3 overexpressing flip-in HEK293 cells, channel stimulated with Pregnenolone sulfate (PS) 50 μM
Description: Monitoring the TRPM3 ion channel driven Ca^2+ uptake.
In order to monitor the inhibition of the mouse TRPM3α2 (mTRPM3) ion channel by the compounds of the invention, a cellular system making use of an mTRPM3alpha2 or hTRPM3 overexpressing cell line (flip-in HEK293) was used. The TRPM3 channel was stimulated/opened with Pregnenolone sulfate (PS) (50 μM) which results in Ca^2+ influx.
For mTRPM3, the intracellular Ca^2+ was measured with a Calcium responsive dye, Fluor-4 AM ester (Invitrogen). Cells were cultured until a confluence of 80-90%, washed with Versene (Invitrogen) and detached from the surface by a short incubation with 0.05% Trypsin (Invitrogen). The trypsination process was stopped by the addition of complete cell culture medium (DMEM, glutamax,10% FCS,NEAA,Pen-Strep). Cells were collected and resuspended in Krebs buffer without Calcium at RT.
Prior the cell seeding (±2000 cells/well into a black, 384 well plate (Greiner)) the diluted compound was added in the assay plate, together with the PS dissolved in Krebs buffer containing Calcium. […] Directly after cell addition the plates were read on an Envision fluorescence reader (Perkin Elmer) by an Excitation of 485 nm and emission at 535 nm.
Channel inhibition was calculated compared to a non-PS stimulated control versus a condition stimulated with PS (50 μM) with vehicle. The ability of the compounds of the invention to inhibit this activity was determined as: Percentage inhibition=[1−((RFU determined for sample with test compound present−RFU determined for sample with positive control inhibitor) divided by (RFU determined in the presence of vehicle−RFU determined for sample with positive control inhibitor))]*100.
The activities of the Example compounds tested are depicted in the table below. The activity ranges A, B and C refer to IC50 values in the Fluo-4 AM assay as follows: “A”: IC50<1 μM; “B”: 1 μM≤IC50≤20 μM and “C”: IC50>20 μM

T1 sequence (J9SQF3 1-1709 isoform J9SQF3-12): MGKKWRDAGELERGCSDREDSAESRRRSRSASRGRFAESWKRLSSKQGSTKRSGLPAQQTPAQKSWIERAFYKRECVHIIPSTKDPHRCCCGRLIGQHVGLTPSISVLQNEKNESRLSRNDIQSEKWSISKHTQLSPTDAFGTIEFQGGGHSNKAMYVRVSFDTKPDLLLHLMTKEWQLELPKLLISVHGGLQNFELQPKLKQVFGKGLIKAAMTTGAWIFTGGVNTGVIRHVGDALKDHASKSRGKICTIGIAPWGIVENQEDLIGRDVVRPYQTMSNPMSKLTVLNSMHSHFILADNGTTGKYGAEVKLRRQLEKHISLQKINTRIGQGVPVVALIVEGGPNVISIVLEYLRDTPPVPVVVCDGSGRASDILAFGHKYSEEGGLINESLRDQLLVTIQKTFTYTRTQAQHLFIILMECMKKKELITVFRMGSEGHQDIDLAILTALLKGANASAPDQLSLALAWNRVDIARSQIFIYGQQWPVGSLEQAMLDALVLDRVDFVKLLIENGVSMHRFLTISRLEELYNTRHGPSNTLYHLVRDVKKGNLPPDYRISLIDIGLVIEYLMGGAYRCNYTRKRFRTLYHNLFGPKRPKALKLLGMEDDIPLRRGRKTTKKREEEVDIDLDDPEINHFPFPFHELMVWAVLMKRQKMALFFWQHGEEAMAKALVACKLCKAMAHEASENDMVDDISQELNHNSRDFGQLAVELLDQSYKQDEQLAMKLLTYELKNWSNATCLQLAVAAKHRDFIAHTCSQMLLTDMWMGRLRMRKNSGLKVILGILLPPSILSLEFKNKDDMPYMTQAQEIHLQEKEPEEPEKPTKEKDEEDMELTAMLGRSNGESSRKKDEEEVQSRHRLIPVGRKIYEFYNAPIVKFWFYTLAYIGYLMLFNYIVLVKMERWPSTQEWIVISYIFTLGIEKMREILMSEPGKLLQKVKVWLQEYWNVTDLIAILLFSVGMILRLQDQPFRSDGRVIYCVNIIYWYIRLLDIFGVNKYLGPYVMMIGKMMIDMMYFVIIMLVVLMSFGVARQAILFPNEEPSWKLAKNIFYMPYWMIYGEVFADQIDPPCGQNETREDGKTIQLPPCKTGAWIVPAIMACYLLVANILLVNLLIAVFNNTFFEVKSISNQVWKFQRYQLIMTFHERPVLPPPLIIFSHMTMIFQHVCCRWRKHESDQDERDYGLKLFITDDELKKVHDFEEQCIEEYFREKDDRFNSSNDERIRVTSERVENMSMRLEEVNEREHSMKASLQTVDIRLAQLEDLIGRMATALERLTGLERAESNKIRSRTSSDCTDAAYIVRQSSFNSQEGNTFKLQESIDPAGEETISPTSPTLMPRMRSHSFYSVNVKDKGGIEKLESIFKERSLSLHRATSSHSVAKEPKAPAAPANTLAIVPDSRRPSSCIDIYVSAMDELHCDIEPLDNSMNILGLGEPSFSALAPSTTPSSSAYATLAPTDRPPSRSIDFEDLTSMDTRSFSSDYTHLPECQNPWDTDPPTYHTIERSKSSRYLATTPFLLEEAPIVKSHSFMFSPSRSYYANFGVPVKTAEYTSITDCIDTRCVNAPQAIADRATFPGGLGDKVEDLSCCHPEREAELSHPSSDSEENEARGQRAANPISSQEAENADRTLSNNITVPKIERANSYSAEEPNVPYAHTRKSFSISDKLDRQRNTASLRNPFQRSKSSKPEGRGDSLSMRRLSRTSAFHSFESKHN

Row | IC50 | Structure (SMILES)
1 | < 1 µM | Cc1ncc(COc2ccc3sc(C)c(C(=O)NC4(CO)COC4)c3c2)s1 [Cpd 025, N-[3-(hydroxymethyl)oxetan-3-yl]-2-methyl-5-[(2-methyl-1,3-thiazol-5-yl)methoxy]-1-benzothiophene-3-carboxamide]
2 | < 1 µM | Cc1sc2ccc(OCc3ccccc3)cc2c1C(=O)O [Cpd 108, 5-(benzyloxy)-2-methyl-1-benzothiophene-3-carboxylic acid]
3 | 1 to 20 µM | Cc1sc2ccc(OCc3ccccc3F)cc2c1C(=O)NC1CCNCC1(F)F (single isomer, unassigned) [Cpd 095 - En2, N-(3,3-difluoropiperidin-4-yl)-5-[(2-fluorophenyl)methoxy]-2-methyl-1-benzothiophene-3-carboxamide]
4 | 1 to 20 µM | Cc1ncc(COc2ccc3sc(C)c(C(=O)NC4(CO)CCOCC4)c3c2)s1 [Cpd 024, N-[4-(hydroxymethyl)oxan-4-yl]-2-methyl-5-[(2-methyl-1,3-thiazol-5-yl)methoxy]-1-benzothiophene-3-carboxamide]
5 | < 1 µM | Cc1ncsc1COc1ccc2sc(C)c(C(=O)NC3(CO)COC3)c2c1 [Cpd 037, N-[3-(hydroxymethyl)oxetan-3-yl]-2-methyl-5-[(4-methyl-1,3-thiazol-5-yl)methoxy]-1-benzothiophene-3-carboxamide]
6 | 1 to 20 µM | Cc1sc2ccc(OCc3ccccc3)cc2c1C(=O)NC1CCN(C)CC1 [Cpd 127, 5-(benzyloxy)-2-methyl-N-(1-methylpiperidin-4-yl)-1-benzothiophene-3-carboxamide]
7 | < 1 µM | Cc1ncsc1COc1ccc2sc(C)c(C(=O)NC3CCNC3=O)c2c1 (stereo not drawn) [Cpd 041, 2-methyl-5-[(4-methyl-1,3-thiazol-5-yl)methoxy]-N-(2-oxopyrrolidin-3-yl)-1-benzothiophene-3-carboxamide]
8 | < 1 µM | Cc1sc2ccc(OCc3ccccc3)cc2c1C(=O)NC1CCOC1 (stereo not drawn) [Cpd 096, 5-(benzyloxy)-2-methyl-N-(oxolan-3-yl)-1-benzothiophene-3-carboxamide]
9 | > 20 µM | Cc1sc2ccc(OCc3cccnc3C(F)(F)F)cc2c1C(=O)NC1CC(F)(F)C1 [Cpd 090, N-(3,3-difluorocyclobutyl)-2-methyl-5-{[2-(trifluoromethyl)pyridin-3-yl]methoxy}-1-benzothiophene-3-carboxamide]
10 | < 1 µM | Cc1sc2ccc(OCc3cccnc3C(F)(F)F)cc2c1C(=O)N[C@@H](C)C(N)=O [Cpd 009, (2S)-2-[(2-methyl-5-{[2-(trifluoromethyl)pyridin-3-yl]methoxy}-1-benzothiophen-3-yl)formamido]propanamide]
11 | < 1 µM | Cc1ncsc1COc1ccc2sc(C)c(C(=O)N[C@H](CO)C(N)=O)c2c1 [Cpd 029, (2R)-3-hydroxy-2-({2-methyl-5-[(4-methyl-1,3-thiazol-5-yl)methoxy]-1-benzothiophen-3-yl}formamido)propanamide]
12 | < 1 µM | Cc1sc2ccc(OCc3ccccc3)cc2c1C(=O)NCC1(N(C)C)CCCC1 [Cpd 111, 5-(benzyloxy)-N-{[1-(dimethylamino)cyclopentyl]methyl}-2-methyl-1-benzothiophene-3-carboxamide]
13 | < 1 µM | Cc1ncsc1COc1ccc2sc(C)c(C(=O)NCc3cccc(O)n3)c2c1 [Cpd 047, N-[(6-hydroxypyridin-2-yl)methyl]-2-methyl-5-[(4-methyl-1,3-thiazol-5-yl)methoxy]-1-benzothiophene-3-carboxamide]
14 | > 20 µM | O=C1CCC(CNC(=O)c2c(C(F)F)sc3ccc(OCc4ccccc4)cc23)N1 (stereo not drawn) [Cpd 148, 5-(benzyloxy)-2-(difluoromethyl)-N-[(5-oxopyrrolidin-2-yl)methyl]-1-benzothiophene-3-carboxamide]
15 | < 1 µM | Cc1ncsc1COc1ccc2sc(C)c(C(=O)NC3CCOC3)c2c1 (stereo not drawn) [Cpd 043, 2-methyl-5-[(4-methyl-1,3-thiazol-5-yl)methoxy]-N-(oxolan-3-yl)-1-benzothiophene-3-carboxamide]
16 | < 1 µM | Cc1ncsc1COc1ccc2sc(C)c(C(=O)NC3(C(N)=O)CCOCC3)c2c1 [Cpd 033, 4-{2-methyl-5-[(4-methyl-1,3-thiazol-5-yl)methoxy]-1-benzothiophene-3-amido}oxane-4-carboxamide]
17 | < 1 µM | Cc1ncsc1COc1ccc2sc(C)c(C(=O)NCC3(N(C)C)CCCC3)c2c1 [Cpd 114, N-{[1-(dimethylamino)cyclopentyl]methyl}-2-methyl-5-[(4-methyl-1,3-thiazol-5-yl)methoxy]-1-benzothiophene-3-carboxamide]

Row | IC50 | Structure (SMILES)
18 | < 1 µM | Cc1ncc(COc2ccc3sc(C)c(C(=O)NC(C)(CO)C(N)=O)c3c2)s1 (single isomer, unassigned) [Cpd 019 - En2, 3-hydroxy-2-methyl-2-({2-methyl-5-[(2-methyl-1,3-thiazol-5-yl)methoxy]-1-benzothiophen-3-yl}formamido)propanamide]
19 | > 20 µM | O=C(NC1CC(F)(F)C1)c1c(C(F)F)sc2ccc(OCc3ccccc3)cc12 [Cpd 145, 5-(benzyloxy)-N-(3,3-difluorocyclobutyl)-2-(difluoromethyl)-1-benzothiophene-3-carboxamide]
20 | < 1 µM | Cc1sc2ccc(OCc3cccnc3C(F)(F)F)cc2c1C(=O)NC1CCNC1=O (stereo not drawn) [Cpd 094, 2-methyl-N-(2-oxopyrrolidin-3-yl)-5-{[2-(trifluoromethyl)pyridin-3-yl]methoxy}-1-benzothiophene-3-carboxamide]
21 | < 1 µM | Cc1ncsc1COc1ccc2sc(C)c(C(=O)N[C@H]3CCN(CCO)C3=O)c2c1 [Cpd 030, N-[(3S)-1-(2-hydroxyethyl)-2-oxopyrrolidin-3-yl]-2-methyl-5-[(4-methyl-1,3-thiazol-5-yl)methoxy]-1-benzothiophene-3-carboxamide]
22 | < 1 µM | Cc1sc2ccc(OCc3ccccc3F)cc2c1C(=O)NC(C)(C)C(N)=O [Cpd 063, 2-({5-[(2-fluorophenyl)methoxy]-2-methyl-1-benzothiophen-3-yl}formamido)-2-methylpropanamide]
23 | < 1 µM | Cc1sc2ccc(OCc3ccccc3F)cc2c1C(=O)N[C@@H](C)C(N)=O [Cpd 007, (2S)-2-({5-[(2-fluorophenyl)methoxy]-2-methyl-1-benzothiophen-3-yl}formamido)propanamide]
24 | < 1 µM | COc1ncccc1COc1ccc2sc(C)c(C(=O)NC3(CO)CCC3)c2c1 [Cpd 143, N-[1-(hydroxymethyl)cyclobutyl]-5-[(2-methoxypyridin-3-yl)methoxy]-2-methyl-1-benzothiophene-3-carboxamide]
25 | < 1 µM | COc1ncccc1COc1ccc2sc(C)c(C(=O)N[C@H](C)C(N)=O)c2c1 [Cpd 140, (2R)-2-({5-[(2-methoxypyridin-3-yl)methoxy]-2-methyl-1-benzothiophen-3-yl}formamido)propanamide]
26 | < 1 µM | Cc1ncsc1COc1ccc2sc(C)c(C(=O)NC3CN(C)CC3(F)F)c2c1 (stereo not drawn) [Cpd 122, N-(4,4-difluoro-1-methylpyrrolidin-3-yl)-2-methyl-5-[(4-methyl-1,3-thiazol-5-yl)methoxy]-1-benzothiophene-3-carboxamide]
27 | < 1 µM | CNC(=O)c1c(C)sc2ccc(OCc3cccnc3C(F)(F)F)cc12 [Cpd 136, N,2-dimethyl-5-{[2-(trifluoromethyl)pyridin-3-yl]methoxy}-1-benzothiophene-3-carboxamide]
28 | 1 to 20 µM | Cc1sc2ccc(OCc3ccccc3)cc2c1C(=O)NCC(C)(C)N1CCOCC1 [Cpd 098, 5-(benzyloxy)-2-methyl-N-[2-methyl-2-(morpholin-4-yl)propyl]-1-benzothiophene-3-carboxamide]
29 | > 20 µM | Cc1sc2ccc(OCc3ccccc3)cc2c1C(=O)NC1CC(F)(F)C1 [Cpd 089, 5-(benzyloxy)-N-(3,3-difluorocyclobutyl)-2-methyl-1-benzothiophene-3-carboxamide]
30 | < 1 µM | Cc1sc2ccc(OCc3ccccc3F)cc2c1C(=O)NC1(CO)COC1 [Cpd 085, 5-[(2-fluorophenyl)methoxy]-N-[3-(hydroxymethyl)oxetan-3-yl]-2-methyl-1-benzothiophene-3-carboxamide]
31 | 1 to 20 µM | Cc1ncsc1COc1ccc2sc(C)c(C(=O)NC3CCN(C)CC3)c2c1 [Cpd 130, 2-methyl-5-[(4-methyl-1,3-thiazol-5-yl)methoxy]-N-(1-methylpiperidin-4-yl)-1-benzothiophene-3-carboxamide]
32 | < 1 µM | COc1ncccc1COc1ccc2sc(C)c(C(=O)NC(C)(C)C(N)=O)c2c1 [Cpd 141, 2-({5-[(2-methoxypyridin-3-yl)methoxy]-2-methyl-1-benzothiophen-3-yl}formamido)-2-methylpropanamide]
33 | < 1 µM | Cc1sc2ccc(OCc3ccccc3)cc2c1C(=O)NC1CCN(C)C1 (stereo not drawn) [Cpd 123, 5-(benzyloxy)-2-methyl-N-(1-methylpyrrolidin-3-yl)-1-benzothiophene-3-carboxamide]
